# Experimental data published in patent publication US20040018500A1, “Methods and systems for analyzing complex biological systems” (priority 2001, published 2004).
# “Also recorded” adds a separate entry of the source.
# Key:
# [1] = test system: Arabidopsis thaliana plants; experiment: SOA1 phenotypic analysis of herbicide-treated Arabidopsis plants; type: in vivo; details: for characteristic symptoms (phenotypic analysis): herbicide-treated Arabidopsis; for Symptom Class: three-week-old Arabidopsis treated with herbicide, phenotypes shown in FIG. 12; for leafCurling (Dev.) / leafTwisting (Dev.) / leafWidth (Dev.) / matureLeafAnthocyanins (Dev.) / matureLeafChlorosis (Dev.) / matureLeafNecrosis (Dev.) / newLeafAnthocyanins (Dev.) / newLeafChlorosis (Dev.) / newLeafNecrosis (Dev.) / pointedLeaves (Dev.): numeric value standardized to mock treated tissues; for tMic (Dev.): score for time to full symptoms at minimum inhibitory concentration
# [2] = test system: Saccharomyces cerevisiae wild type strain BY4743; experiment: AF1 metabolite analysis (GC-MS, LC-MS) of yeast treated with antifungal drugs; type: cell-based
# [3] = test system: Arabidopsis plants; details: nitrate addition to N-starved Arabidopsis; cited from earlier work
# [4] = test system: Arabidopsis thaliana; experiment: MOA1 biochemical (metabolite) profiling by LC-MS and GC-MS of sprayed Arabidopsis; details: for commonly regulated (putative stress-related) metabolites: MOA1, 20 minutes and 1 hour after spraying
# [5] = test system: Arabidopsis thaliana; experiment: MOA1 gene expression profiling (22,000 gene array) of sprayed Arabidopsis; details: for No. of Lethal Genes Altered: regulated genes (1 hr) found in list of genes essential for plant growth and development; for extent of gene expression perturbation compared to the other treatments: 1 hr
# [6] = test system: Magnaporthe grisea; type: cell-based
smiles,measurement,setting,value
CCNc1nc(Cl)nc(NC(C)C)n1 [Atrazine],characteristic symptoms (phenotypic analysis),[1],rapid and widespread leaf necrosis
same,Symptom Class,[1],7
CC[C@@H]([C@H](C)O)n1ncn(-c2ccc(N3CCN(c4ccc(OC[C@@H]5CO[C@@](Cn6cncn6)(c6ccc(F)cc6F)C5)cc4)CC3)cc2)c1=O [Posaconazoie],Fold Change luteolin,[2]; platform LC,0
"O=[N+]([O-])O [Nitrate, nitrate]",Nitrate Regulation of Glutamate synthetase,[3],↑
same,Nitrate Regulation of Glutamine synthetase(2),[3],↑
same,Nitrate Regulation of MADs Box(2),[3],↓
same,Nitrate Regulation of MYB transcription factor,[3],↑
same,Nitrate Regulation of Malate Dehydrogenase,[3],↑
same,Nitrate Regulation of Nitrate transporter,[3],↑
same,Nitrate Regulation of Phosphate transporter,[3],↑
same,Nitrate Regulation of Transaldolase,[3],↑
same,Nitrate Regulation of Transketolase,[3],↑
O=C(O)c1cc(Oc2ccc(C(F)(F)F)cc2Cl)ccc1[N+](=O)[O-] [Acifluorfen],characteristic symptoms (phenotypic analysis),[1],Necrotic leaf flecks
same,Symptom Class,[1],6
CC[C@@H]([C@H](C)O)n1ncn(-c2ccc(N3CCN(c4ccc(OC[C@@H]5CO[C@@](Cn6cncn6)(c6ccc(F)cc6F)C5)cc4)CC3)cc2)c1=O [Posaconazote],Fold Change of porphobilinogen,"[2]; platform nLC, p-Value 1",0
COC(=O)c1cc(Oc2ccc(Cl)cc2Cl)ccc1[N+](=O)[O-] [Bifenox],characteristic symptoms (phenotypic analysis),[1],Necrotic leaf flecks
same,Symptom Class,[1],6
"CNc1cnn(-c2cccc(C(F)(F)F)c2)c(=O)c1Cl [Norfluazon, Norflurazon]",commonly regulated (putative stress-related) metabolites,[4],"Only a few, if any, stress-related metabolites were observed"
O=C(O)Cn1c(=O)sc2cccc(Cl)c21 [Benazolin],Symptom Class,[1],5
CC(C)N1C(=O)c2ccccc2NS1(=O)=O [Bentazon],characteristic symptoms (phenotypic analysis),[1],rapid and widespread leaf necrosis
same,Symptom Class,[1],7
COc1nc(C)nc(NC(=O)NS(=O)(=O)c2ccccc2Cl)n1 [Chlorsulfuron],characteristic symptoms (phenotypic analysis),[1],anthocyanin accumulation in the older leaves accompanied by chlorosis of the newly emerging leaves
same,Symptom Class,[1],4
same,No. of Lethal Genes Altered,[5],8
CN(C)C(=O)Nc1ccc(Cl)c(Cl)c1 [Diuron],characteristic symptoms (phenotypic analysis),[1],rapid and widespread leaf necrosis
same,leafCurling (Dev.),[1],1
same,leafTwisting (Dev.),[1],0
same,leafWidth (Dev.),[1],−2
same,matureLeafAnthocyanins (Dev.),[1],0
same,matureLeafChlorosis (Dev.),[1],2
same,matureLeafNecrosis (Dev.),[1],4
same,newLeafAnthocyanins (Dev.),[1],newLeafAnthocyanins 0
same,newLeafChlorosis (Dev.),[1],2
same,newLeafNecrosis (Dev.),[1],4
same,pointedLeaves (Dev.),[1],1
same,tMic (Dev.),[1],1
same,Symptom Class,[1],7
"O=C(O)COc1ccc(Cl)cc1Cl [2,4-D]",leafCurling (Dev.),[1],1
same,leafTwisting (Dev.),[1],2
same,leafWidth (Dev.),[1],−1
same,matureLeafAnthocyanins (Dev.),[1],1
same,matureLeafChlorosis (Dev.),[1],2
same,matureLeafNecrosis (Dev.),[1],0
same,newLeafAnthocyanins (Dev.),[1],0
same,newLeafChlorosis (Dev.),[1],1
same,newLeafNecrosis (Dev.),[1],0
same,pointedLeaves (Dev.),[1],0
same,tMic (Dev.),[1],2
same,Symptom Class,[1],5
CS(=O)(=O)c1cc(C(F)(F)F)ccc1C(=O)c1cnoc1C1CC1 [Isoxaflutole],Alpha-tocopherol levels,"[4]; MOA1 metabolite data, early time points",not significantly changed relative to the control
same,tyrosine and phenylalanine levels,"[4]; MOA1 metabolite data, relative to the control",up-regulated relative to the control; also recorded: began to accumulate relative to the control after one hour
same,No. of Lethal Genes Altered,[5],15
O=C(O)CNCP(=O)(O)O [Glyphosate],Tier 4: growth of M. grisea with ammonium or glutamine as nitrogen source,[6],Little growth defect
same,"growth of M. grisea with nitrate, nitrite, or glutamate as the sole nitrogen source",[6],inhibited growth
same,comparison of growth results for Tiers 3 and 4 (Unknown 4 versus glyphosate),[6]; 250 μg/ml,nearly identical as compared to Unknown 4
same,growth inhibition of M. grisea and its remediation,[6]; glyphosate at 1.0 mg/ml,remediated by inclusion of aromatic amino acids
same,characteristic symptoms (phenotypic analysis),[1],anthocyanin accumulation in the older leaves accompanied by chlorosis of the newly emerging leaves
same,leafCurling (Dev.),[1],0
same,leafTwisting (Dev.),[1],0
same,leafWidth (Dev.),[1],0
same,matureLeafAnthocyanins (Dev.),[1],3
same,matureLeafChlorosis (Dev.),[1],1
same,matureLeafNecrosis (Dev.),[1],3
same,newLeafAnthocyanins (Dev.),[1],1
same,newLeafChlorosis (Dev.),[1],2
same,newLeafNecrosis (Dev.),[1],0
same,pointedLeaves (Dev.),[1],1
same,tMic (Dev.),[1],2
same,Symptom Class,[1],4
same,tyrosine level,"[4]; MOA1 metabolite data, one hour, relative to the control",decreased relative to the control after one hour
CC(C)C1(C)N=C(c2ncccc2C(=O)O)NC1=O (centres unmarked) [Imazapyr],characteristic symptoms (phenotypic analysis),[1],anthocyanin accumulation in the older leaves accompanied by chlorosis of the newly emerging leaves
same,Symptom Class,[1],4
same,commonly regulated (putative stress-related) metabolites,[4],"Only a few, if any, stress-related metabolites were observed"
O=C(O)c1ccccc1C(=O)Nc1cccc2ccccc12 [Naptalam],extent of gene expression perturbation compared to the other treatments,[5],fewest gene expression perturbations
same,No. of Lethal Genes Altered,[5],3
C[n+]1ccc(-c2cc[n+](C)cc2)cc1 [Paraquat],characteristic symptoms (phenotypic analysis),[1],rapid and widespread leaf necrosis
same,leafCurling (Dev.),[1],2
same,leafTwisting (Dev.),[1],0
same,leafWidth (Dev.),[1],−1
same,matureLeafAnthocyanins (Dev.),[1],0
same,matureLeafChlorosis (Dev.),[1],1
same,matureLeafNecrosis (Dev.),[1],4
same,newLeafAnthocyanins (Dev.),[1],0
same,newLeafChlorosis (Dev.),[1],1
same,newLeafNecrosis (Dev.),[1],4
same,pointedLeaves (Dev.),[1],1
same,tMic (Dev.),[1],2
same,Symptom Class,[1],7
CCc1cnc(C2=NC(C)(C(C)C)C(=O)N2)c(C(=O)O)c1 (centres unmarked) [Imazethapyr],characteristic symptoms (phenotypic analysis),[1],anthocyanin accumulation in the older leaves accompanied by chlorosis of the newly emerging leaves
same,Symptom Class,[1],4
OC(Cn1cncn1)(Cn1cncn1)c1ccc(F)cc1F [Fiuconazole],Fold Change of hypoxanthine,[2]; nLC,0.7757
COC(=O)NS(=O)(=O)c1ccc(N)cc1 [Asulam],extent of gene expression perturbation compared to the other treatments,[5],fewest gene expression perturbations
same,No. of Lethal Genes Altered,[5],5
c1cc[n+]2c(c1)-c1cccc[n+]1CC2 [Diquat],characteristic symptoms (phenotypic analysis),[1],rapid and widespread leaf necrosis
same,leafCurling (Dev.),[1],2
same,leafTwisting (Dev.),[1],0
same,leafWidth (Dev.),[1],−2
same,matureLeafAnthocyanins (Dev.),[1],0
same,matureLeafChlorosis (Dev.),[1],1
same,matureLeafNecrosis (Dev.),[1],4
same,newLeafAnthocyanins (Dev.),[1],0
same,newLeafChlorosis (Dev.),[1],1
same,newLeafNecrosis (Dev.),[1],4
same,pointedLeaves (Dev.),[1],1
same,tMic (Dev.),[1],2
same,Symptom Class,[1],7
COc1c(Cl)ccc(Cl)c1C(=O)O [Dicamba],Symptom Class,[1],5
CCc1cccc(C)c1N(C(=O)CCl)C(C)COC (centres unmarked) [Metolachlor],Symptom Class,[1],7
CSc1nnc(C(C)(C)C)c(=O)n1N [Metribuzin],characteristic symptoms (phenotypic analysis),[1],rapid and widespread leaf necrosis
same,Symptom Class,[1],7
